How the values were obtained:
[1] = target: T1, purified CAT (chloramphenicol acetyltransferase) (Escherichia coli, UniProt P62577); assay: Procedure for comparing activity of fluorescent substrates (TLC, conversion to acetylated products); format: biochemical; conditions: 0.8 U purified CAT, acetyl CoA, 1M TRIS pH 7.4, 37° C., 1 hour
T1 construct: the pSV2cat reporter type
Description: To a solution of 0.5 mg acetyl CoA in 112 μL of 1M TRIS pH 7.4 was added 7 μL of a solution of 440 μM fluorescent CAT substrate in ethanol. Then 0.8 U of purified CAT in 1 μL of 1 M TRIS (pH 7.4) was added and the solution was incubated at 37° C. for 1 hour. The reaction mixture was extracted with 0.7 mL of ethyl acetate, and the solvent was removed under vacuum. The residue was dissolved in 14 μL of ethyl acetate, spotted on the pre-absorbent area of Whatman LK6 silica-gel TLC plates and developed with 10% methanol in chloroform. A control, run as above but with no enzyme present, was spotted adjacent to each reaction mixture.
Qualitative estimates of substrate activity of each fluorescent derivative were made by examination of the plates for conversion to acetylated products.

[2] = Solubility in aqueous and nonaqueous solvents; format: physicochemical; conditions: compared with the corresponding fluorescein derivative 36
[3] = target: T1, purified CAT (chloramphenicol acetyltransferase); assay: Relative velocity vs chloramphenicol; format: biochemical; conditions: first ten minutes, substrate 33.2 μM, TRIS pH 7.4, 0.4 mg Acetyl CoA, 0.8U purified enzyme
Description: The velocity during the first ten minutes at a substrate concentration of 33.2 μM was determined using Compound 6 and ^14 C chloramphenicol. The reactions were run in 100 μL final volume TRIS pH 7.4 with 0.4 mg of Acetyl CoA and 0.8U of purified enzyme. The concentrations of acetylated products after ten minutes were determined by extraction from the TLC plates and measuring spectrophotometrically, in the case of Compound 6, and by counting radioactivity in the case of ^14 C chloramphenicol. The velocity during the first ten minutes was assumed to be very close to Vmax. The velocity of Compound 6 was 0.66 of the velocity of ^14 C chloramphenicol.

[4] = tested on: chloramphenicol acetyltransferase (CAT); conditions: reported by Shaw et al., J. Biol. Chem. 242(4):687 (1967); read-out: Km (Michaelis-Menten constant) for chloramphenicol; cited from earlier work

T1 sequence (P62577 whole entry, looked up): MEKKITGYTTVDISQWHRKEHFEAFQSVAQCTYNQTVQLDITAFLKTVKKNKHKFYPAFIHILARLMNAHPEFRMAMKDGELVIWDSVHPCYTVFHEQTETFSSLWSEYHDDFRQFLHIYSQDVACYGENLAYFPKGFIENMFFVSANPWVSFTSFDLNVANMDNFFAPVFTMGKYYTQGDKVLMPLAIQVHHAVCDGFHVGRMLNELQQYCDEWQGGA

Row | SMILES | Qualitative estimate of substrate activity (reaction velocity, conversion to acetylated products) [1] | Solubility in ethyl acetate [2] | Velocity relative to the velocity of 14C chloramphenicol [3] | Km [4] [µM]
1 | CC(=O)Nc1ccc([C@@H](O)[C@@H](CO)NC(=O)CCCNC(=O)Cc2cc(=O)oc3cc(N(C)C)ccc23)cc1 [Compound 23] | highest reaction velocities | – | – | –
2 | CC(=O)Nc1ccc([C@@H](O)[C@@H](CO)NC(=O)CCCNC(=O)CC2=CC(C)=[N+]3C2=Cc2c(C)cc(C)n2[B-]3(F)F)cc1 [Compound 6] | highest reaction velocities | much more soluble in ethyl acetate | 0.66 | –
3 | O=C(N[C@H](CO)[C@H](O)c1ccc([N+](=O)[O-])cc1)C(Cl)Cl [chloramphenicol] | – | – | – | ~15
4 | Nc1ccc([C@@H](O)[C@@H](CO)NC(=O)CCCCCNc2ccc([N+](=O)[O-])c3nonc23)cc1 [Compound 28] | highest reaction velocities | – | – | –
5 | CN(C)c1ccc2c(CC(=O)NCCCC(=O)N[C@H](CO)[C@H](O)c3ccc([N+](=O)[O-])cc3)cc(=O)oc2c1 [Compound 21] | highest reaction velocities | – | – | –

— patent US5364764A, “Fluorescent chloramphenicol derivatives for determination of chloramphenicol acetyltransferase activity” (Molecular Probes, Inc., priority 1992, dated 1994)
